In PubChem BioAssay AID1963982 (Molecular Pharmacology Branch, DTP, NCI, 2024):

Tested on: 313798-341-R-J2-PDC spheroids, viability
Experiment: Anticancer human tumor 313798-341-R-J2-PDC patient-derived cervical squamous cell carcinoma cell line growth inhibition [PI3K]
Details: spheroids with HUVEC and MSC; for IC50: curve of first compound; for viability, T/C: stronger effect = lower value; active = viability on the fitted dose curve at most 10% of control; inactive = the rest
Source text: Combinatorial screen of targeted agents with the PI3K inhibitors inavolisib, alpelisib, duvelisib, and copanlisib in multi-cell type tumor spheroids
A high-throughput screen of multi-cell type tumor spheroids was designed to identify active combinations of targeted small molecules and PI3K pathway inhibitors. Complex spheroids include a stromal component modeled by human endothelial cells (HUVEC) and fibroblasts modeled by human mesenchymal stem cells (MSCs). The concentration ranges selected for each drug and investigational agent were based upon clinically achievable concentrations if the clinical Cmax of the agent was known.
Compounds. The drugs and investigational agents: inavolisib (NSC800729), alpelisib (NSC765974), duvelisib (NSC772469), copanlisib (NSC816437), ipatasertib (NSC767898), afuresertib (NSC778305), talazoparib (NSC767125), sapanisertib (NSC764658), selumetinib (NSC741078), tovorafenib (DAY101, NSC766906), vemurafenib (NSC761431), ravoxertinib (NSC781343), sotorasib (NSC818433), MRTX1133 (NSC 836407), abemaciclib (NSC 768073), palbociclib (NSC758247), venetoclax (NSC 766270), SY5609 (NSC837396), enzalutamide (NSC755605), and darolutamide (NSC825331), were obtained from the National Cancer Institute (NCI) Developmental Therapeutics Program Chemical Repository. The FDA-approved anticancer drug set is available from the NCI Developmental Therapeutics Program. […] The stock solutions were prepared in dimethyl sulfoxide (DMSO, Sigma-Aldrich, St. Louis, MO, cat. D2650) at 800-fold the tested concentration and stored at -70 degrees C prior to their use. All drugs and investigational agents were tested over a range starting from a high concentration at or near the clinical Cmax and decreasing in half-log increments. If the clinical Cmax for an agent had not been determined, the highest concentration tested was 10 microM.
Cell Culture. All cells were maintained in an incubator at 37 degrees C and 5% CO2 with 95% humidity. The PDC lines were cultured according to standard operating procedures established by the NCI PDMR (https://pdmr.cancer.gov/sops/default.htm). All PDCs were thawed and cultured in Matrigel-coated flasks prepared with a working solution of 1X Ham's F-12 nutrient mix, without supplementation (Invitrogen, Waltham, MA, cat. 11765054), 100 U/mL penicillin-streptomycin (Invitrogen, cat. 15140122), and 2.5% Matrigel (Corning Inc., Corning, NY, cat. 354248) for the first three passages. The 354836-022-R-J1-PDC, 475296-252-R-J1-PDC, and 997726-040-R-J2-PDC lines were cultured in 6A media, which includes advanced DMEM/F-12 (Thermo Fisher Scientific, cat. 12634028), 10 mM HEPES (Thermo Fisher Scientific, cat. 15630080), 1X GlutaMAX supplement (Thermo Fisher Scientific, cat. 35050061), 0.1 mg/mL primocin (InvivoGen, San Diego, CA, cat. ant-pm-2), 10% defined fetal bovine serum, heat inactivated (HyClone Laboratories Inc., Logan, UT, cat. SH30070.03HI), 50% L-WRN conditioned media (ATCC, cat. CRL-3276), 1.25 mM N-Acetyl-L-cysteine (Sigma-Aldrich, cat. A9165), 10 mM nicotinamide (Sigma-Aldrich, cat. N0636), 1X B-27 supplement (Thermo Fisher Scientific, cat. 17504044), 1X N-2 supplement (Thermo Fisher Scientific, cat. 17502048), and 10 microM Y-27632 dihydrochloride (Tocris Bioscience, Bristol, United Kingdom, cat. 1254). The 624824-186-R-J2-PDC line was cultured in 6C/Colon 1B media, which includes all 6A media components plus 50 ng/mL human EGF recombinant protein (Thermo Fisher Scientific, cat. PHG0311). […]
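Also: spheroids exposed to compounds for seven days.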

Cn1ncnc1[C@H]1c2n[nH]c(=O)c3cc(F)cc(c23)N[C@@H]1c1ccc(F)cc1 + Cc1nc(NC(=O)N2CCCC2C(N)=O)sc1-c1ccnc(C(C)(C)C(F)(F)F)c1
< 0.316 nM: IC50 (second compound 10 µM)
inactive: viability, T/C (second compound 0.0316 µM, first compound 0.000316 µM) 112% | viability, T/C (second compound 0.0316 µM, first compound 0.001 µM) 90% | viability, T/C (second compound 0.0316 µM, first compound 0.00316 µM) 97.6% | viability, T/C (second compound 0.0316 µM, first compound 0.01 µM) 96.1% | viability, T/C (second compound 0.0316 µM, first compound 0.0316 µM) 93.9% | viability, T/C (second compound 0.0316 µM, first compound 0.1 µM) 95.7% | viability, T/C (second compound 0.1 µM, first compound 0.000316 µM) 98.7% | viability, T/C (second compound 0.1 µM, first compound 0.001 µM) 103% | viability, T/C (second compound 0.1 µM, first compound 0.00316 µM) 98.2% | viability, T/C (second compound 0.1 µM, first compound 0.01 µM) 97.8% | viability, T/C (second compound 0.1 µM, first compound 0.0316 µM) 92.6% | viability, T/C (second compound 0.1 µM, first compound 0.1 µM) 87% | viability, T/C (second compound 0.316 µM, first compound 0.000316 µM) 97.7% | viability, T/C (second compound 0.316 µM, first compound 0.001 µM) 100% | viability, T/C (second compound 0.316 µM, first compound 0.00316 µM) 110% | viability, T/C (second compound 0.316 µM, first compound 0.01 µM) 90.7% | viability, T/C (second compound 0.316 µM, first compound 0.0316 µM) 102% | viability, T/C (second compound 0.316 µM, first compound 0.1 µM) 80.8% | viability, T/C (second compound 1 µM, first compound 0.000316 µM) 92.2% | viability, T/C (second compound 1 µM, first compound 0.001 µM) 86.3% | viability, T/C (second compound 1 µM, first compound 0.00316 µM) 82.9% | viability, T/C (second compound 1 µM, first compound 0.01 µM) 72.5% | viability, T/C (second compound 1 µM, first compound 0.0316 µM) 79.1% | viability, T/C (second compound 1 µM, first compound 0.1 µM) 71.5% | viability, T/C (second compound 3.16 µM, first compound 0.000316 µM) 59.6% | viability, T/C (second compound 3.16 µM, first compound 0.001 µM) 61% | viability, T/C (second compound 3.16 µM, first compound 0.00316 µM) 59% | viability, T/C (second compound 3.16 µM, first compound 0.01 µM) 54.9% | viability, T/C (second compound 3.16 µM, first compound 0.0316 µM) 59.6% | viability, T/C (second compound 3.16 µM, first compound 0.1 µM) 49.4% | viability, T/C (second compound 10 µM, first compound 0.000316 µM) 35.9% | viability, T/C (second compound 10 µM, first compound 0.001 µM) 36.8% | viability, T/C (second compound 10 µM, first compound 0.00316 µM) 38.2% | viability, T/C (second compound 10 µM, first compound 0.01 µM) 34.2% | viability, T/C (second compound 10 µM, first compound 0.0316 µM) 33.2% | viability, T/C (second compound 10 µM, first compound 0.1 µM) 28.3%
> 100 nM: IC50 (second compound 0.0316 µM) | IC50 (second compound 0.1 µM) | IC50 (second compound 0.316 µM) | IC50 (second compound 1 µM) | IC50 (second compound 3.16 µM)
